Reference: ChEMBL document CHEMBL4145608, “Dehydrodiconiferyl Alcohol Inhibits Osteoclast Differentiation and Ovariectomy-Induced Bone Loss through Acting as an Estrogen Receptor Agonist” (J Nat Prod, 2018)
Activity calls are given as the source filed them. No cut-off for these calls is given here.

Key:
[1] = tested on: RAW264.7; assay: Inhibition of RANKL-induced bone resorption in mouse RAW264.7 cells assessed as reduction in pit formation after 7 days by optical microscopy; assay type: functional, cell-based
[2] = tested on: RAW264.7; assay: Cytotoxicity against mouse RANKL-treated RAW264.7 cells assessed as reduction in cell viability at 10 to 40 uM after 72 hrs by MTT assay; assay type: cell-based; settings: raw264.7, 72 h
[3] = tested on: RAW264.7; assay: Inhibition of NF-kappaB/p38 MAPK signaling pathway in mouse RAW264.7 cells assessed as reduction in RANKL-induced DC-STAMP mRNA level after 24 hrs by qRT-PCR method; assay type: cell-based
[4] = tested on: RAW264.7; assay: Inhibition of NF-kappaB/p38 MAPK signaling pathway in mouse RAW264.7 cells assessed as reduction in RANKL-induced NFATc1 protein expression level after 24 hrs by Western blot method; assay type: cell-based
[5] = tested on: RAW264.7; assay: Inhibition of NF-kappaB/p38 MAPK signaling pathway in mouse RAW264.7 cells assessed as reduction in RANKL-induced c-Fos protein expression level after 24 hrs by Western blot method; assay type: cell-based
[6] = tested on: RAW264.7; assay: Inhibition of NF-kappaB/p38 MAPK signaling pathway in mouse RAW264.7 cells assessed as reduction in RANKL-induced NFATc1 nuclear translocation after 24 hrs by Western blot method; assay type: cell-based
[7] = tested on: RAW264.7; assay: Inhibition of NF-kappaB signaling pathway in mouse RAW264.7 cells assessed as reduction in RANKL-induced IkappaB phosphorylation at 10 to 40 uM after 30 mins by Western blot method; assay type: cell-based
[8] = target: T1, MAP kinase p38 (Mus musculus) (UniProt P47811+O08911+Q9WUI1+Q9Z1B7); assay: Inhibition of p38 MAPK signaling pathway in mouse RAW264.7 cells assessed as reduction in RANKL-induced p38 phosphorylation at 10 to 40 uM after 30 mins by Western blot method; assay type: cell-based
[9] = target: T1, MAP kinase p38 (Mus musculus); assay: Inhibition of p38 MAPK signaling pathway in mouse RAW264.7 cells assessed as reduction in RANKL-induced JNK phosphorylation at 10 to 40 uM after 30 mins by Western blot method; assay type: cell-based
[10] = tested on: RAW264.7; assay: Inhibition of RANKL-induced osteoclast differentiation in mouse RAW264.7 cells harboring AMPKalpha1 siRNA assessed as decrease in TRAP mRNA level at 20 uM after 24 hrs by qRT-PCR method; assay type: functional, cell-based
[11] = tested on: RAW264.7; assay: Inhibition of RANKL-induced osteoclast differentiation in mouse RAW264.7 cells harboring AMPKalpha1 siRNA assessed as decrease in NFATc1 mRNA level at 20 uM after 24 hrs by qRT-PCR method; assay type: functional, cell-based
[12] = target: T2, Estrogen receptor (Mus musculus) (UniProt P19785); assay: Induction of estrogen receptor-mediated AMPKalpha1 activation in mouse RAW264.7 cells at 20 uM in presence of CAMKKbeta inhibitor STO609; assay type: cell-based
T2 sequence (whole entry): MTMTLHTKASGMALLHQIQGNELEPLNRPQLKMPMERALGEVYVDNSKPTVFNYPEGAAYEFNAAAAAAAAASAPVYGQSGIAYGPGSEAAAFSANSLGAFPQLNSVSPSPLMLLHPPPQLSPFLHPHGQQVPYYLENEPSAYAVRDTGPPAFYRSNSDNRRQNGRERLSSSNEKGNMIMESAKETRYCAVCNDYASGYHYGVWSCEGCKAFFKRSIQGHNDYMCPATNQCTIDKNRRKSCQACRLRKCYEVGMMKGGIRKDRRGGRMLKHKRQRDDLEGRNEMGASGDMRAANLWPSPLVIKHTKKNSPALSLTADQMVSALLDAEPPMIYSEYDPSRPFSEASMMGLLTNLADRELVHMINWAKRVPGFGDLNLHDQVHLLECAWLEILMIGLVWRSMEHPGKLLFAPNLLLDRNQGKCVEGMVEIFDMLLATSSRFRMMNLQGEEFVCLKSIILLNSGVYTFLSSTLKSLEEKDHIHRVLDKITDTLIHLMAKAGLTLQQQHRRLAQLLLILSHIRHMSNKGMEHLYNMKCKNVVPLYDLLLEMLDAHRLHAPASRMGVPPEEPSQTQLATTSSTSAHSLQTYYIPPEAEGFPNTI

[13] = tested on: RAW264.7; assay: Inhibition of RANKL-induced osteoclast differentiation in mouse RAW264.7 cells assessed as decrease in size of TRAP-positive multinucleated cells at 20 uM after 5 days in presence of ERalpha antagonist MPP by microscopy; assay type: functional, cell-based
[14] = tested on: RAW264.7; assay: Inhibition of RANKL-induced osteoclast differentiation in mouse RAW264.7 cells assessed as decrease in TRAP activity at 20 uM after 5 days in presence of ERalpha antagonist MPP by microscopy; assay type: functional, cell-based
[15] = tested on: RAW264.7; assay: Inhibition of RANKL-induced osteoclast differentiation in mouse RAW264.7 cells assessed as decrease in c-Fos mRNA level at 20 uM after 24 hrs in presence of ERalpha antagonist MPP by qRT-PCR method; assay type: functional, cell-based
[16] = tested on: RAW264.7; assay: Inhibition of RANKL-induced osteoclast differentiation in mouse RAW264.7 cells assessed as decrease in TRAP mRNA level at 20 uM after 24 hrs in presence of ERalpha antagonist MPP by qRT-PCR method; assay type: functional, cell-based
[17] = tested on: RAW264.7; assay: Inhibition of RANKL-induced osteoclast differentiation in mouse RAW264.7 cells assessed as decrease in NFATc1 mRNA level at 20 uM after 24 hrs in presence of ERalpha antagonist MPP by qRT-PCR method; assay type: functional, cell-based
[18] = tested on: RAW264.7; assay: Inhibition of RANKL-induced osteoclast differentiation in mouse RAW264.7 cells assessed as decrease in size of TRAP-positive multinucleated cells at 20 uM after 5 days in presence of ERbeta antagonist PHTPP by microscopy; assay type: functional, cell-based
[19] = organism: Homo sapiens; assay: Selectivity ratio of IC50 for recombinant human full length untagged ERbeta expressed in insect cells to IC50 for recombinant human full length untagged ERalpha expressed in insect cells
[20] = tested on: Mus musculus; assay: Anti-osteoporotic activity in Balb/c mouse assessed as inhibition of OVX-mediated decrease in trabecular thickness in femur at 25 to 100 mg/kg, ip administered for 4 weeks daily by microcomputed tomography; assay type: functional, organism-based
[21] = tested on: Mus musculus; assay: Anti-osteoporotic activity in Balb/c mouse assessed as inhibition of OVX-mediated decrease in bone marrow density in femur at 25 to 100 mg/kg, ip administered for 4 weeks daily by microcomputed tomography; assay type: functional, organism-based
[22] = tested on: Mus musculus; assay: Anti-osteoporotic activity in Balb/c mouse assessed as decrease in OVX-induced trabecular bone surface in femur at 25 to 100 mg/kg, ip administered for 4 weeks daily by microcomputed tomography; assay type: functional, organism-based
[23] = tested on: Mus musculus; assay: Anti-osteoporotic activity in Balb/c mouse assessed as decrease in OVX-induced trabecular pattern factor in femur at 25 to 100 mg/kg, ip administered for 4 weeks daily by microcomputed tomography; assay type: functional, organism-based
[24] = tested on: Mus musculus; assay: Anti-osteoporotic activity in Balb/c mouse assessed as decrease in OVX-induced structure model index in femur at 25 to 100 mg/kg, ip administered for 4 weeks daily by microcomputed tomography; assay type: functional, organism-based
[25] = tested on: Mus musculus; assay: Anti-osteoporotic activity in Balb/c mouse assessed as inhibition of OVX-induced NFATc1 mRNA expression level in bone marrow at 25 to 100 mg/kg, ip administered for 4 weeks daily by qRT-PCR method; assay type: functional, organism-based

COc1cc(C2Oc3c(OC)cc(/C=C/CO)cc3C2CO)ccc1O (stereo not given)
inhibition [1]: Dose-dependent effect | Activity [2]: Non-Toxic | inhibition [3]: Dose-dependent effect | inhibition [4]: Dose-dependent effect | inhibition [5]: Dose-dependent effect | inhibition [6]: Dose-dependent effect | inhibition [7]: Active | inhibition [8]: Active | inhibition [9]: inactive | inhibition [10]: inactive | inhibition [11]: inactive | Activity [12]: Active | inhibition [13]: inactive | inhibition [14]: inactive | inhibition [15]: inactive | inhibition [16]: inactive | inhibition [17]: inactive | inhibition [18]: Active | Ratio IC50 [19]: 4.63 | inhibition [20]: Active | inhibition [21]: Active | Activity [22]: Active | Activity [23]: Active | Activity [24]: Active | inhibition [25]: Active
